In patent US20080025916A1, “Tailored Treatment Suitable for Different Forms of Mastocytosis” (AB Science, priority 2003, published 2008):

Columns and labels:
[1] = target: 816 mutated c-kit (D816V mutant form of the human c-kit receptor) (Homo sapiens, UniProt P10721, D816V)
Description: (§1) At 24, 48 and 72 hours, the number of viable cells was determined in each condition using the trypan blue exclusion assay.

[2] = test system: mouse bone marrow-derived mast cell line (BMMC) expressing the mutant D816V form of the human c-kit; assay: proliferation of BMMC line, viable cell count by trypan blue exclusion assay; assay type: cell-based; settings: 24, 48 and 72 hours
Description: as §1

[3] = test system: lymphoid BaF/3 murine cell line transfected with the D816V mutant form of the human c-kit; assay: proliferation of BaF/3 cells transfected with D816V c-kit; assay type: cell-based; settings: not affected up to 1 microM, inhibited above 1 microM as in BMMC
Description: as §1

[4] = test system: juxtamembrane mutated c-kit; settings: shown in WO 02/080925; cited from earlier work
c-kit wild = c-kit wild (Homo sapiens, UniProt P10721); settings: shown in WO 02/080925; cited from earlier work
Chain of c-kit wild (P10721 26-976): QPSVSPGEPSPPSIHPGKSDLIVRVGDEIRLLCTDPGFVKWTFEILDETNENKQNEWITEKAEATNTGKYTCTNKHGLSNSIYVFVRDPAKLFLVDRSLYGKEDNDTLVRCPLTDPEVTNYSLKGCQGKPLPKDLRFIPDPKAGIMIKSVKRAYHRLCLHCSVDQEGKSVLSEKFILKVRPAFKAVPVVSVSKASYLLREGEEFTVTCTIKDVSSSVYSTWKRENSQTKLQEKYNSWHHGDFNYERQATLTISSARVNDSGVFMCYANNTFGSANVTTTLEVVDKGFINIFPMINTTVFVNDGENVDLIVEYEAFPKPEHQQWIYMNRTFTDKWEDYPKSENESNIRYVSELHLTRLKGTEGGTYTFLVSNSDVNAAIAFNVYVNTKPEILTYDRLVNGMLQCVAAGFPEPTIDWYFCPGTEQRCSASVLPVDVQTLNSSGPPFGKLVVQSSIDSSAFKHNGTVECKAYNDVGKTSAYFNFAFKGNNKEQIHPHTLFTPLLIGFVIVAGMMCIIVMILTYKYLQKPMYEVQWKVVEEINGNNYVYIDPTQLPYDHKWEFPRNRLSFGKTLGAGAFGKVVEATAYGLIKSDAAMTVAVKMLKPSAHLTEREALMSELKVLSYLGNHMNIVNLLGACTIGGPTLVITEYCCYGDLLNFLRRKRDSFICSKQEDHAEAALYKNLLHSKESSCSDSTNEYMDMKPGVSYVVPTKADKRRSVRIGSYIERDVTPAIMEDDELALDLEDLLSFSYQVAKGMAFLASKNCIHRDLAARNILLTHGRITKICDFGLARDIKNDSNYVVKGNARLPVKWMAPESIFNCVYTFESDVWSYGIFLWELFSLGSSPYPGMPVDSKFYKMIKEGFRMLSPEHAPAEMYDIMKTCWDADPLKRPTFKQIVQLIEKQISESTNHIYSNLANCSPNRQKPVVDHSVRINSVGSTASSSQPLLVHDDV

Chain of 816 mutated c-kit (D816V mutant form of the human c-kit receptor) (P10721 26-976 D816V): as the sequence (P10721 26-976) above, with D791V counted along it

With `Cc1ccc(NC(=O)c2ccc(CN3CCN(C)CC3)cc2)cc1Nc1nccc(-c2cccnc2)n1` [STI571] as the molecule, how does the “resistance of the D816V mutant form of the human c-kit receptor” value ([1]; pharmacological doses) read?
The value was “resistant”.

And the “activity on 816 mutated c-kit” value ([1]; see FIGS. 1 and 2)?
The value was “not active”.

What about the “proliferation of the BMMC line with the mutant D816V form of the human c-kit” value ([2]; STI-571 under or equal to 1 microM, FIG. 2) of the same molecule?
Its value is “not affected”.

What about the “proliferation of the BMMC line with the mutant D816V form of the human c-kit” value ([2]; concentrations of STI-571 above 1 microM (up to 10^-5 M)) of the same molecule?
Its value is “dose- and time-dependently inhibited”.

What about the “proliferation of BaF/3 cells with D816V human c-kit (same result as BMMC)” value [3] of the same molecule?
The value was “also observed”.

And the “activity on the juxtamembrane mutated c-kit” value [4]?
The value was “very active”.

And the “activity on c-kit wild” value (c-kit wild)?
The value was “active”.
